Among the data in patent publication US20110028463A1, “AMIDE COMPOUNDS” (Astellas Pharma Inc., priority 2007, published 2011) are Ki values, retold here.

The Ki is the dissociation constant of the complex between target and ligand, obtained from inhibition or displacement.

T1 sequence (P43114 whole entry): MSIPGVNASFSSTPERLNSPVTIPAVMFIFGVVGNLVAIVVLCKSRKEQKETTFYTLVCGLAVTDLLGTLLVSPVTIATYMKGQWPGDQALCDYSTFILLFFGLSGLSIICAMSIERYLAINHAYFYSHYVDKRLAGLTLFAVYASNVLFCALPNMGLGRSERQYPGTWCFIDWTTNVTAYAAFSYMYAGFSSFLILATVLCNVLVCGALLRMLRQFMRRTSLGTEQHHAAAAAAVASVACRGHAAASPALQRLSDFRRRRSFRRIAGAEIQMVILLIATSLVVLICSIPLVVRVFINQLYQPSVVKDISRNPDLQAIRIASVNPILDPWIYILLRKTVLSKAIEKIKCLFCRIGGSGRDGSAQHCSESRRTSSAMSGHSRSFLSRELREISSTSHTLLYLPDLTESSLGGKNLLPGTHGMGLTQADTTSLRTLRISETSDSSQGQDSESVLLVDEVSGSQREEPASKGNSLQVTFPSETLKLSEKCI

The assay has as its target T1, rat EP4 receptor (Rattus norvegicus, UniProt P43114).
T1 construct: expressed in transfected cells; host or cells: HEK293
In words: Evaluation test on rat EP4 receptor affinity ([3H]PGE2 binding assay). To be noted: [3H]PGE2 0.3 nM; membrane fraction of HEK293 cells expressing rat EP4; room temperature, 1 hour. On the procedure:
Evaluation Test on Rat EP4 Receptor Affinity
Cell Culture and Transfection
Using a 10 cm collagen-coated dish (Asahi Glass), HEK293 cells were cultured in a D-MEM culture medium, the culture medium was removed at a confluence (90 to 100% density state) and washed with a phosphate-buffered saline (PBS), and then the cells were detached with N,N,N′,N′-tetrakis(carboxymethyl)ethylenediamine (EDTA). The number of the cells were counted and seeded on a 15 cm collagen-coated dish to a confluence of 70%. The next day, to an Opti-MEM culture medium at 1.2 mL/dish was added Lipofectamine 2000 (Invitrogen) at 60 μL/dish, followed by being left to stand at room temperature for 5 minutes. A plasmid in which a rat EP4 (sequence number 1) had been inserted into a TA cloning site of pcDNA3.1-V5-His-topo was added thereto at 15 μg/dish. After leaving it to stand at room temperature for 30 minutes, the resultant was added to the dish and cultured for 20 to 24 hours. The cell culture was carried out in a CO2 incubator (37° C., 5% CO2).
Preparation of Membrane Fraction
The culture medium was removed by suction, 10 mL of cooled PBS was added thereto per 15 cm dish, and the cells were scraped using a cell scraper (Sumitomo Bakelite). After washing with cooled PBS (1,200 rpm, 4° C., 5 min), and then suspended in 6 mL of cooled 20 mM Tris-HCl (pH 7.4; Nakalai Tesque Inc., including 5 mM EDTA (Nakalai Tesque Inc.) per dish and homogenized using a Polytron, the homogenate was centrifuged (26,000 rpm, 20 min, 4° C.). The obtained precipitate was resuspended in cooled 20 mM Tris-HCl and homogenized again using a Polytron, and the homogenate was centrifuged (26,000 rpm, 20 min, 4° C.). The obtained precipitate was resuspended in 50 mM HEPES (pH 7.5; Dojindo Laboratories) to 1 mL per dish, homogenized using a Polytron, and freeze-stored at −80° C. as a membrane fraction. At this time, a part thereof was used for the measurement of the protein concentration. Measurement of the protein concentration was carried out using a Bio-Rad Protein assay kit (Bio-Rad Laboratories) in accordance with the appended standard Protocol in duplicate.
[^3H] PGE2 μL (final concentration 0.3 nM; Perkin Elmer), 100 μL (20 μg/well) of a membrane fraction prepared from the rat EP4 expression cell and 50 μL of a test compound were mixed in a 96-well microplate (Sumitomo Bakelite), incubated at room temperature for 1 hour, filtered by suction on a UniFilter-96 GF/B (Perkin Elmer) using a FilterMate Harvester (Perkin Elmer), and then washed three times with 300 μL/well of a cooled assay buffer. Dilution of [^3H]PGE2 and the membrane fraction was carried out using an assay buffer (50 mM HEPES, 10 mM MgCl2), and dilution of the test compound and the unlabeled PGE2 was carried out using DMSO and the assay buffer. Further, in the case a human serum albumin (HSA) is added, dilution was carried out using an assay buffer containing 4% HSA (final concentration 1%; Sigma). The UniFilter-96 GF/B was treated by preliminarily washing twice with 200 μL/well of a cooled assay buffer. The UniFilter-96 GF/B after filtration was dried in a dryer overnight, 50 μL/well of MicroScint20 (Perkin Elmer) was added thereto, and then the radioactivity was measured using a TopCount (Perkin Elmer). For measurement of the non-specific binding, an unlabeled PGE2 (final concentration 1 μM; Cayman) was added. All of the measurements were carried out in duplicate, and the specific binding amount was determined by subtracting the non-specific binding amount from the total binding amount.
According to Test method as above, the rat EP4 receptor affinity (Ki) of the compound of the formula (I) was measured. Ex represents Example Compound number.
In turn, `O=C(NCC1CCC(C(=O)O)CC1)c1cccc2ccn(Cc3ccc(Cl)cc3)c12` (stereo not shown) [Example 110] displayed a Ki of 12 nM.

The compound `C[C@H](NC(=O)c1cc2ccccc2n1Cc1ccc(Cl)cc1)c1ccc(C(=O)O)cc1` [Example 37] gave a Ki of 9.9 nM.

`O=C(O)c1ccc2c(ccn2NC(=O)c2ccccc2Cc2ccc(Cl)cc2)c1` [Example 4, 1-{[2-(4-chlorobenzyl)benzoyl]amino}-1H-indole-5-carboxylic acid]: the Ki was found to be 7.5 nM.

For `C[C@H](NC(=O)c1ccccc1-n1ccc2cc(Cl)ccc21)c1ccc(C(=O)O)cc1` [Example 50], the Ki turned out to be 15 nM.

Turning to `C[C@H](NC(=O)c1cccc2c1N(Cc1ccc(Cl)cc1)CC2)c1ccc(C(=O)O)cc1` [Example 22], the inhibitory constant (Ki) was determined as 0.79 nM.

In turn, `C[C@H](NC(=O)c1cccc2ccn(Cc3ccc4ccccc4n3)c12)c1ccc(C(=O)O)cc1` [Example 57] gave a Ki of 1.6 nM.

`CN(NC(=O)c1cccc2ccn(Cc3ccc(Cl)cc3)c12)c1ccc(C(=O)O)cc1` [Example 8] registered a Ki of 0.8 nM.

`C[C@H](NC(=O)c1cccc2nc(Nc3ccc(Cl)cc3)oc12)c1ccc(C(=O)O)cc1` [Example 46] registered a Ki of 11 nM.

`C[C@H](NC(=O)c1cccc2ccn(Cc3ccc(Cl)cc3)c12)c1ccc(-c2noc(=O)[nH]2)cc1` [Example 15] showed a Ki of 3.5 nM.

`CN(NC(=O)c1cc(Cl)cc2ccn(Cc3ccc(Cl)cc3)c12)c1ccc(C(=O)O)cc1` [Example 31] gave an inhibition constant Ki of 0.83 nM.

Compound `CC(NC(=O)c1cccc2ccn(Cc3ccc(Cl)cc3)c12)[C@H]1CC[C@H](C(=O)O)CC1` (stereo partly shown) [Example 61] gave a Ki of 12 nM.

For `C[C@H](NC(=O)c1sccc1N(C)Cc1ccc(Cl)cc1)c1ccc(C(=O)O)cc1` [Example 7], the Ki was 16 nM.

`O=C(O)c1ccc(CNC(=O)c2cccc3ccn(Cc4ccc(Cl)cc4)c23)cc1` [Example 111] came in with a Ki of 2.6 nM.

Take `C[C@H](NC(=O)c1cc(Cl)cc2ccn(Cc3ccc(Cl)cc3)c12)c1ccc(C(=O)O)cc1` [Example 21]: the affinity, expressed as Ki, was 0.51 nM.

`C[C@H](NC(=O)c1cccc2cnn(Cc3ccc(Cl)cc3)c12)c1ccc(C(=O)O)cc1` [Example 47] displayed a Ki of 5.5 nM.

`C[C@H](NC(=O)c1cccn1Cc1ccc(Cl)cc1)c1ccc(C(=O)O)cc1` [Example 39] displayed a Ki of 37 nM.
